Four sequences from PMC4376724, “Differential Phenotypic and Functional Profiles of TcCA-2 -Specific Cytotoxic CD8^+ T Cells in the Asymptomatic versus Cardiac Phase in Chagasic Patients” (PLoS ONE, 2015) can be followed below.

The target in this test is HLA-A*02:01 (Homo sapiens, UniProt P04439, D140Y/D185E/D98H/E176V/E277Q/G131W/G231S/I119V/I121R/I166T/I218V/L300P/L318F/N151K/N90K/P208A/P217A/Q86G/Q94H/R138H/R169H/T345S). The test can be described thus: HLA-A*02:01 binding assay (surface stabilization on TAP-deficient T2 cells). Particulars: different peptide concentrations in duplicate, serum-free RPMI, overnight at room temperature, PE anti-HLA-A2 (BB7.2) flow cytometry, referred to 25 μM HB-ENV335-343 peptide. As to the method: TAP-deficient T2 cells were used for the HLA-A*02:01 binding assays and the K562-A2 cells for the HLA-A*02:01 restriction assay. The cells were cultured in complete RPMI medium supplemented with 10% of inactivated Fetal Calf Serum (iFCS), 2 mM glutamine, and 100 U/ml penicillin. K562-A2 cells, expressing the HLA-A*02:01 molecule were cultured in the presence of […] of G-418, as previously described. The T2 and K562-A2 cells were kindly provided by Dr. Pedro Romero (University of Lausanne) and by Dr Peter Ponsaerts (University of Antwerp, with the permission of Dr. Cedrik Britten from Johanes Gutenberg-University Mainz), respectively.
HLA-A*02:01 surface stabilization test was carried out as described in [42]. Briefly, TAP-deficient T2 cells were loaded with different concentrations of each peptide, in duplicate in serum-free RPMI medium, and incubated overnight at room temperature. Afterwards, the cells were stained with a PE-labeled HLA-A2-specific antibody (BB7.2 clone, BD biosciences) and analyzed by flow cytometry. The high-affinity HLA-A*02:01-binding peptide […] ([…]) was included as internal standard. Affinity data were calculated as the percentage of maximum complex stabilization, as described in [44]. The following equation was used: % of maximal stabilization = 100 x [(mean fluorescence with peptide)–(background mean fluorescence)]/[(mean fluorescence with 25 μM HBENV335-343 peptide)–(background mean fluorescence)]. Background value was obtained with cells incubated in the same conditions without peptide.
The percentage of maximal binding stabilization of these eight TcCA-2 peptides was evaluated using TAP-deficient T2 cells and different concentrations of each peptide. […] The maximal binding affinity is shown for each peptide in Table 1.
ALRNLRVFL [TcCA-2_607-615]: the “% maximal stabilization” value was 29.54%. With AAAGDKLSL [TcCA-2_273-281] the figure was 12.41%; with ALQVTNHRYL [TcCA-2_657-666], 21.49%; with TVFDASRSTV [TcCA-2_442-451], 24.44%.
